{"source": "ChEMBL document CHEMBL5247674", "about": "“Discovery of Selective and Potent KRASG12D Inhibitors as Potential Therapy in Cancer” (ACS Med Chem Lett, 2023)", "data": [{"biological_target": "GTPase KRas/RAF1 (Homo sapiens, UniProt P01116)", "sequence (P04049 whole entry)": "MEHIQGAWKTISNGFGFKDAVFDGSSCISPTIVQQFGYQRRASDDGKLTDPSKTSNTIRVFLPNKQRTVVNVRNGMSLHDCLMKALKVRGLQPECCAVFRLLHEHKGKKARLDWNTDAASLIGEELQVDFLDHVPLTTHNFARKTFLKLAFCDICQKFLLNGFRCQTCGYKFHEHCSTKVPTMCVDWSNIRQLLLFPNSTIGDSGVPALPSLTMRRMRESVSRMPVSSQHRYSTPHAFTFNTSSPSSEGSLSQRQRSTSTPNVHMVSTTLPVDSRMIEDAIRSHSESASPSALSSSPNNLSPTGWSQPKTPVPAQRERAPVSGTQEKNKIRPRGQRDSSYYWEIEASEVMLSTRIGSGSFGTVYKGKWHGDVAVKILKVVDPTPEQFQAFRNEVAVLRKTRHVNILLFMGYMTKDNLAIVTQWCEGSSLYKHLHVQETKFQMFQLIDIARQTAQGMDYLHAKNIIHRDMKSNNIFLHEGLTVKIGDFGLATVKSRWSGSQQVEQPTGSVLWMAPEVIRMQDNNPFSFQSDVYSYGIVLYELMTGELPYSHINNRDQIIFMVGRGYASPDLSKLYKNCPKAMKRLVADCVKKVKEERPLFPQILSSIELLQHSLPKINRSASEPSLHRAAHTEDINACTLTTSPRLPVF", "sequence (P01116 whole entry)": "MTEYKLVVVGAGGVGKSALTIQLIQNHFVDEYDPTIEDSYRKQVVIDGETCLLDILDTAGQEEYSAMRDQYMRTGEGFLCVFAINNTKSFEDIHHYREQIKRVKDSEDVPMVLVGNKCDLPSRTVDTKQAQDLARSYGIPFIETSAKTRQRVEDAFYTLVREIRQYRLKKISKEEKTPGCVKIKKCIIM", "assay": "Inhibition of KRAS (unknown origin) to CRAF (unknown origin) protein protein interaction", "assay_type": "protein assay", "conditions": "not given", "units": {"IC50": "nM"}, "values": [{"smiles": "[2H][C@H]1CN2CCC[C@@]2(COc2nc(N3CC4CCC3CN4)c3cnc(-c4cc(O)cc5ccc(F)c(C#C)c45)c(F)c3n2)C1", "note": "(some centres undefined)", "IC50": 48.9}, {"smiles": "[2H]C1([2H])CC[C@@]2(COc3nc(N4CC5CCC4CN5)c4cnc(-c5cc(O)cc(Cl)c5C5CC5)c(F)c4n3)C[C@@]([2H])(F)CN12", "note": "(some centres undefined)", "IC50": "> 1000"}, {"smiles": "[2H]C1([2H])CC[C@@]2(COc3nc(N4CC5CCC4CN5)c4cnc(-c5cc(O)cc6ccc(F)c(C#C)c56)c(F)c4n3)C[C@@]([2H])(F)CN12", "note": "(some centres undefined)", "IC50": 59.6}]}, {"species_on_record": "Homo sapiens", "assay": "Selectivity ratio of IC50 for inhibition of KRAS G12D mutant (unknown origin) to CRAF (unknown origin) protein protein interaction to IC50 for KRAS (unknown origin) to CRAF (unknown origin) protein protein interaction", "conditions": "tested as the 2H-labelled form", "values": [{"smiles": "C#Cc1c(F)ccc2cc(O)cc(-c3ncc4c(N5CC6CCC5CN6)nc(OCC56CCCN5CCC6)nc4c3F)c12", "note": "(centres undefined)", "Ratio IC50": 12}, {"smiles": "C#Cc1c(F)ccc2cc(O)cc(-c3ncc4c(N5CC6CCC5CN6)nc(OC[C@@]56CCCN5C[C@H](F)C6)nc4c3F)c12", "note": "(some centres undefined)", "Ratio IC50": 12}, {"smiles": "Oc1cc(Cl)c(C2CC2)c(-c2ncc3c(N4CC5CCC4CN5)nc(OC[C@@]45CCCN4C[C@H](F)C5)nc3c2F)c1", "note": "(some centres undefined)", "Ratio IC50": "> 72"}]}, {"biological_target": "GTPase KRas (Homo sapiens, UniProt P01116, G12D)", "sequence (P01116 whole entry G12D)": "as the sequence (P01116 whole entry) above, with G12D counted along it", "assay": "Inhibition of human KRAS G12D mutant in human AGS cells assessed as reduction in phosphorylated ERK level incubated for 3 hrs", "assay_type": "cell-based", "conditions": "not given", "units": {"IC50": "nM"}, "values": [{"smiles": "[2H]C1([2H])CC[C@@]2(COc3nc(N4CC5CCC4CN5)c4cnc(-c5cc(O)cc(F)c5C5CC5)c(F)c4n3)C[C@@]([2H])(F)CN12", "note": "(some centres undefined)", "IC50": "> 50"}, {"smiles": "[2H]C1([2H])CC[C@@]2(COc3nc(N4CC5CCC4CN5)c4cnc(-c5cc(O)cc6ccc(F)c(F)c56)c(F)c4n3)C[C@@]([2H])(F)CN12", "note": "(some centres undefined)", "IC50": "≤ 50"}, {"smiles": "[2H]C1([2H])CC[C@]2(COc3nc(N4CC5CCC4CN5)c4cnc(-c5cc(O)cc(Cl)c5C5CC5)c(F)c4n3)C[C@]([2H])(F)CN12", "note": "(some centres undefined)", "IC50": "> 50"}, {"smiles": "[2H][C@H]1CN2CCC[C@@]2(COc2nc(N3CC4CCC3CN4)c3cnc(-c4cc(O)cc5ccc(F)c(C#C)c45)c(F)c3n2)C1", "note": "(some centres undefined)", "IC50": "≤ 50"}, {"smiles": "[2H]C1([2H])CC[C@@]2(COc3nc(N4CC5CCC4CN5)c4cnc(-c5cc(O)cc(Cl)c5C5CC5)c(F)c4n3)C[C@@]([2H])(F)CN12", "note": "(some centres undefined)", "IC50": "≤ 50"}, {"smiles": "[2H]C1([2H])CC[C@@]2(COc3nc(N4CC5CCC4CN5)c4cnc(-c5cc(O)cc6ccc(F)c(C#C)c56)c(F)c4n3)C[C@@]([2H])(F)CN12", "note": "(some centres undefined)", "IC50": "≤ 50"}, {"smiles": "Oc1cc(Cl)c(C2CC2)c(-c2ncc3c(N4CC5CCC4CN5)nc(OC[C@]45CCCN4C[C@@H](F)C5)nc3c2F)c1", "note": "(some centres undefined)", "IC50": "> 50"}, {"smiles": "Oc1cc(Cl)c(C(F)(F)F)c(-c2ncc3c(N4CC5CCC4CN5)nc(OCC45CCCN4CCC5)nc3c2F)c1", "note": "(centres undefined)", "IC50": "> 1"}, {"smiles": "Oc1cc(Cl)c(C2CC2)c(-c2ncc3c(N4CC5CCC4CN5)nc(OC[C@@]45CCCN4C[C@H](F)C5)nc3c2F)c1", "note": "(some centres undefined)", "IC50": "≤ 50"}, {"smiles": "Oc1ccc(C(F)(F)F)c(-c2ncc3c(N4CC5CCC4CN5)nc(OCC45CCCN4CCC5)nc3c2F)c1", "note": "(centres undefined)", "IC50": "> 1"}]}, {"test_system": "not listed separately", "assay": "Inhibition of KRAS G12D mutant (unknown origin) to CRAF (unknown origin) protein protein interaction", "design": "species or system Homo sapiens", "conditions": "not given", "units": {"IC50": "nM"}, "values": [{"smiles": "[2H][C@H]1CN2CCC[C@@]2(COc2nc(N3CC4CCC3CN4)c3cnc(-c4cc(O)cc5ccc(F)c(C#C)c45)c(F)c3n2)C1", "note": "(some centres undefined)", "IC50": 3.95}, {"smiles": "[2H]C1([2H])CC[C@@]2(COc3nc(N4CC5CCC4CN5)c4cnc(-c5cc(O)cc(Cl)c5C5CC5)c(F)c4n3)C[C@@]([2H])(F)CN12", "note": "(some centres undefined)", "IC50": 13.9}, {"smiles": "[2H]C1([2H])CC[C@@]2(COc3nc(N4CC5CCC4CN5)c4cnc(-c5cc(O)cc6ccc(F)c(C#C)c56)c(F)c4n3)C[C@@]([2H])(F)CN12", "note": "(some centres undefined)", "IC50": 5.07}]}]}
